Test results taken from publication PMC11642486 (International Journal of Molecular Sciences, 2024).
Where a name gives a salt, the structure may show the parent alone.

Key:
[1] = test system: LPS-activated microglia cells; experiment: RNA-sequencing of LPS-activated microglia cells treated with drug; type: cell-based, mouse; conditions: 30 µM DMF
Method: Microglia cells were activated with LPS and treated with the same drug concentrations at the same timepoints. Each experiment was repeated three times. RNA was extracted using the Maxwell® 16 LEV simplyRNA Cells Kit and the robotic platform Maxwell® 16 (both from Promega Biotech Ibérica) following the manufacturer’s instructions. RNA-sequencing was performed as previously described using the NovaSeq 6000 Sequencing System (Illumina, San Diego, CA, USA) by pair-end (150 x 2) and at a sequencing depth of 20 million reads per sample [60]. FastQC v0.12.1 and Cutadapt v4.4 were used for quality control of the raw reads and removal of the adapter sequences, respectively. Trimmomatic v0.39 was employed to further select trimmed reads larger than 20 nucleotides and with a sequencing quality score greater than 30 [62]. Reads were aligned with HISAT2 v2.2.1 to the mouse or rat genome assemblies GRCm39 and mRatBN7.2, respectively. Mapped reads were annotated using Ensembl gene annotation v110 for the mouse genome and v111 for the rat genome and counts quantified using HTSeq v2.0.3 [63]. Gene counts were analyzed using principal components with custom R scripts (R version 4.3.1). DESeq2 v1.40.2 was used for differential expression analysis.

neurons = experiment: Neuronal apoptosis (TUNEL) induced by conditioned medium of LPS-activated microglia; type: cell-based, Wistar rats; conditions: neurons pre-treated 4 h, then 4 h with supernatant of LPS + drug microglia (48 h)
Method: Given that physiologically, if any of the drugs enter the BBB, both the neurons and microglia will be exposed to them, we decided to study the synergistic effects (direct antioxidant properties in neurons with indirect anti-inflammatory effects in microglia) of the drugs in both cells. […] Representative confocal microscopy images of the apoptosis assay are shown in Supplementary Figure S2.
The apoptosis of neurons was determined using the DeadEnd™ Fluorometric TUNEL System (Promega Biotech Ibérica, Madrid, Spain) following the manufacturer’s instructions. Neurons were seeded on glass coverslips previously treated with 1 mg/mL of poly-L-lysine at a density of 500,000 cells/well. […] Then, the supernatants of 48 h LPS-treated or LPS + drug (at the same drug concentrations as in neurons) microglia cells were added to the neuronal culture and incubated for an additional 4 h. Apoptosis was determined using Leica TCS SP5 confocal microscopy and quantified using ImageJ software. For each experimental condition, five random fields were captured to count the number of positive fluorescent cells (apoptotic) divided by the total number of cells identified by the nuclear fluorescent staining TO-PRO. Each experiment was repeated three times.

NF-kB p65 = NF-kB p65 nuclear translocation by immunofluorescence in LPS-activated microglia; type: cell-based, murine; conditions: LPS + drug 30 min
Method: Lipopolysaccharide (LPS) from Escherichia coli 026:B6 in an aqueous solution (Thermo Fisher Scientific) was used as proinflammatory stimuli in microglia at a final concentration of 600 ng/mL. For the LPS experiments, the concentration of fetal bovine serum in the microglia culture medium was reduced to 0.1% immediately before drug treatment. All of the compounds were titrated in their respective vehicle and diluted into the culture media for cell treatments. The final concentration of vehicle (DMSO, EtOH or H2O) was consistent for all treated cells (0.2%).
For the immunofluorescence experiments, neurons and microglia were directly seeded on glass coverslips previously treated with 1 mg/mL of poly-L-lysine. […] After the drug treatments, the cells were fixed on ice with 4% paraformaldehyde for 25 min and then permeabilized and blocked using 0.1% Triton X-100 (10 min) and 5% BSA (30 min), respectively. Cells were then incubated overnight with the primary antibodies and 1% BSA at 4 °C. The primary antibodies anti-Nrf2 (ab1375550) and anti-NF-kB p65 (ab16502) (both from Abcam, Cambridge, United Kingdom) were used at 1:200. After washing with PBS, cells were incubated with the fluorophore-conjugated secondary antibody anti-Rabbit IgG Alexa Fluor 488 (Thermo Fisher Scientific) at 1:500 for 1 h at room temperature. Cells were counterstained with the TO-PRO fluorescent dye (Thermo Fisher Scientific) to visualize the cell nuclei. Images were captured using the confocal microscope Leica TCS SP5 (Leica Microsystems, Wetzlar, Germany). For each experimental condition, five random fields were captured and analyzed using ImageJ software (National Institutes of Health, Maryland, DC, USA). Activation of Nrf2 or NF-kB was defined as nuclear translocation, measured by the increase in the mean fluorescence intensity (MFI) in the nucleus. Each experiment was repeated three times.

[2] = after oral intake of the therapeutic dose established for DMF; cited from earlier work

Compound	number of downregulated DEGs vs LPS alone ([1]; 4 h, 30 µM MMF)	number of upregulated DEGs vs LPS alone ([1]; 4 h, 30 µM MMF)	number of DEGs vs cells treated with LPS alone ([1]; 4 h, 30 µM MMF, 6 µM CBD)	number of DEGs with strong downregulation ([1]; 24 h)	number of DEGs with strong upregulation ([1]; 24 h)	number of downregulated DEGs vs LPS alone ([1]; 24 h, 6 µM CBD)	number of upregulated DEGs vs LPS alone ([1]; 24 h, 6 µM CBD)	number of DEGs vs cells treated with LPS alone ([1]; 24 h, 30 µM MMF, 6 µM CBD)	effect on neuronal apoptosis, in words (neurons; 10 µM)	effect on neuronal apoptosis, in words (neurons; 30 µM)	effect on LPS-induced NF-kB p65 nuclear translocation, in words (NF-kB p65; 4 µM)	effect on LPS-induced NF-kB p65 nuclear translocation, in words (NF-kB p65; 6 µM)	effect on LPS-induced NF-kB p65 nuclear translocation, in words (NF-kB p65; CBD concentrations higher than 6 µM)	effect on neuronal apoptosis, in words (neurons; 7 µM)	concentration of MMF detected in the brain [2]	effect on LPS-induced NF-kB p65 nuclear translocation, in words (NF-kB p65; any of the studied concentrations)
COC(=O)/C=C/C(=O)OC [DMF, Dimethyl fumarate]	340	202	542	67	128	146	230	376	significantly prevented neuronal apoptosis	not at 30 µM	–	–	–	–	–	–
C=C(C)[C@@H]1CCC(C)=C[C@H]1c1c(O)cc(CCCCC)cc1O [CBD, cannabidiol]	–	–	2	–	–	1265	1345	2610	–	–	inhibition of NF-kB p65	inhibition of NF-kB p65	this inhibition was not achieved	prevented neuronal apoptosis	–	–
COC(=O)/C=C/C(=O)O [MMF, monomethyl fumarate]	three	five	eight	–	–	–	–	could not detect any transcriptomic changes	also prevented neuronal apoptosis	also protected neurons from apoptosis	–	–	–	–	approximately 100 µM	did not prevent the activation of NF-KB
